From patent US5250673A, “2'-deoxy-5-substituted uridine derivatives” (priority 1983, dated 1993)
Where two headings read alike, the source gives them in different places.

Experiments:
Type in all cases: in vivo, mouse
[1] = system: Sarcoma 180; test: antitumor activity: 50% inhibition of tumor enhancement, Sarcoma 180 transplanted in mice; settings: oral, once a day, 7 days, male ICR/JCL mice, tumor weight day 10
Method: (a) Method for determining of antitumor activity value
5×10^6 Cells of mouse-transplantable tumor Sarcoma 180 were transplanted to each male ICR/JCL-strain mouse (having a weight of 27 to 30 g) subcutaneously at the back. Each test compound dissolved or suspended in 0.1% Tween 80^(*) - 0.5% CMC solution was orally administered to various test groups each consisting of 7 mice once a day for 7 consecutive days from the next day of tumor transplanting, in an amount of 1.0 ml of solution or suspension per 100 g weight per day. As to a control group, the same Tween 80-CMC solution containing no test compound was orally administered once a day for 7 consecutive days in an amount of 1.0 ml per 100 g weight per day. (*) (A trademark for a series of surface which is a polyoxyethylene derivative of fatty acid partial ester of sorbitol anhydride, manufactured by I.C.I. U.S., Inc.)
On the tenth day from the tumor transplanting, an average tumor weight for each administration level of each test compound was determined. This weight was compared with an average tumor weight in control group, and the ratio of tumor enhancement inhibition at each administration level of each test compound compared with control group was calculated. From these calculations, the administration level of each test compound at which the ratio of tumor enhancement inhibition become 50% was obtained and the level (amount) was taken as the antitumor activity value of each compound.

[2] = toxicity value: 50% inhibition of weight increase of test animal (Sarcoma 180 tumor-transplanted mice); settings: mouse, sarcoma 180 bearing mice, oral, once a day, 7 days, male ICR/JCL mice, read-out: Toxicity value (B) Administration amount of test compound at which weight increase of test animal is inhibited by 50% compared with that of control group
Method: (b) Method for determining toxicity value
Hitherto, toxicity values of anti-malignant tumor agents have been calculated on the bases of LD50 of test animals, in most cases. […] Therefore, in the present test, accumulated toxicity, which well represents the toxicity of anti-malignant tumor agents, was focused on and, as an indication for sensitive detection of the accumulated toxicity, inhibition of weight increase of test animal was measured. That is, when antitumor activity value was determined in the above item (a), the weight of each mouse of each test groups for each test compounds was measured daily from the day of tumor transplanting, immediately before administration.
On the day of tumor weight measurement, the average net weight increase of each mouse of each test groups for each test compounds from the day of tumor transplanting was measured. These increases were compared with the average net weight increase of control group and the ratio of net weight increase of each test groups of each test compounds to that of control group was calculated. From these calculations, there was obtained an addition amount of each test compound at which weight increase is inhibited by 50% compared with that of control group, and that amount was taken as a toxicity value of each compound.

[3] = system: Sarcoma 180; test: calculation of therapeutic index (B)/(A), Sarcoma 180 mice; parameters: key: C = toxicity value (B) / antitumor activity value (A); settings: oral, once a day, 7 days
Method: (c) Calculation of therapeutic index
By the use of the antitumor activity value (hereinafter referred to as A) and the toxicity value (hereinafter referred to as B) of each compound, which were obtained in the above items (a) and (b), respectively, therapeutic index (hereinafter referred to as C) was calculated in accordance with the following equation.
Therapeutic index (C)=^(B)(A)

Row | Compound | Antitumor activity value (A) Administration amount of test compound at which tumor enhancement is inhibited by 50% compared with that of control group ([1]; Table 1-a) [mg/kg/day] | TD50 at 240 h ([2]; Table 1-a) [mg/kg] | Therapeutic index (C) = (B)/(A) ([3]; Table 1-a) | Antitumor activity value (A) Administration amount of test compound at which tumor enhancement is inhibited by 50% compared with that of control group ([1]; Table 1-b) [mg/kg/day] | TD50 at 240 h ([2]; Table 1-b) [mg/kg] | Therapeutic index (C) = (B)/(A) ([3]; Table 1-b) | other results
1 | O=c1[nH]c(=O)n([C@H]2C[C@H](O)[C@@H](COCc3ccc(Cl)cc3)O2)cc1C(F)(F)F [Compound 11] | 18 | 22 | 1.22 |  |  |  | 
2 | O=c1[nH]c(=O)n([C@H]2C[C@H](OCc3ccc(Cl)cc3)[C@@H](CO)O2)cc1C(F)(F)F [Compound 12] | 12 | 17 | 1.42 |  |  |  | 
3 | Cc1ccccc1COC[C@H]1O[C@@H](n2cc(C(F)(F)F)c(=O)[nH]c2=O)C[C@@H]1O [Compound 13, 2'-deoxy-5'-O-(2-methylbenzyl)-5-trifluoromethyluridine] | 48 | 65 | 1.35 |  |  |  | 
4 | Cc1ccccc1CO[C@H]1C[C@H](n2cc(C(F)(F)F)c(=O)[nH]c2=O)O[C@@H]1CO [Compound 14] | 40 | 57 | 1.43 |  |  |  | 
5 | Cc1cccc(COC[C@H]2O[C@@H](n3cc(C(F)(F)F)c(=O)[nH]c3=O)C[C@@H]2O)c1 [Compound 15, 2'-deoxy-5'-O-(3-methylbenzyl)-5-trifluoromethyluridine] | 24 | 41 | 1.71 |  |  |  | 
6 | Cc1cccc(CO[C@H]2C[C@H](n3cc(C(F)(F)F)c(=O)[nH]c3=O)O[C@@H]2CO)c1 [Compound 16, 2'-deoxy-3'-O-(3-methylbenzyl)-5trifluoromethyluridine] | 31 | 45 | 1.45 |  |  |  | 
7 | COc1ccc(COC[C@H]2O[C@@H](n3cc(C(F)(F)F)c(=O)[nH]c3=O)C[C@@H]2O)cc1 [Compound 17] | 45 | 51 | 1.13 |  |  |  | 
8 | COc1ccc(CO[C@H]2C[C@H](n3cc(C(F)(F)F)c(=O)[nH]c3=O)O[C@@H]2CO)cc1 [Compound 18, 2'-deoxy-3'-O-(4-methoxybenzyl)-5-trifluoromethyluridine] | 52 | 60 | 1.15 |  |  |  | 
9 | O=c1c(C(F)(F)F)cn([C@H]2C[C@H](O)[C@@H](COCc3ccccc3)O2)c(=O)n1C1CCCO1 (stereo partly shown) [Compound 21, 3-(2-tetrahydrofuranyl)-2'-deoxy-5'-O-benzyl-5-trifluoromethyluridine] | 22 | 30 | 1.36 |  |  |  | 
10 | CCOC[C@H]1O[C@@H](n2cc(C(F)(F)F)c(=O)n(C(=O)c3ccccc3)c2=O)C[C@@H]1O [Compound 24, 3-benzoyl-2'-deoxy-5'-O-ethyl-5-trifluoromethyluridine] |  |  |  | 26 | 36 | 1.38 | 
11 | CCO[C@H]1C[C@H](n2cc(C(F)(F)F)c(=O)n(C(=O)c3ccccc3)c2=O)O[C@@H]1CO [Compound 25, 3-benzoyl-2'-deoxy-3'-O-ethyl-5-trifluoromethyluridine] |  |  |  | 38 | 31 | 0.82 | 
12 | CCCCOC[C@H]1O[C@@H](n2cc(C(F)(F)F)c(=O)n(C(=O)c3ccccc3)c2=O)C[C@@H]1O [Compound 26] |  |  |  | 50 | 74 | 1.48 | 
13 | O=C(c1ccccc1)n1c(=O)c(C(F)(F)F)cn([C@H]2C[C@H](O)[C@@H](COCc3ccccc3)O2)c1=O [Compound 27, 3-benzoyl-5'-O-benzyl-2'-deoxy-5-trifluoromethyluridine] |  |  |  | 25 | 35 | 1.40 | 
14 | O=C(c1ccccc1)n1c(=O)c(C(F)(F)F)cn([C@H]2C[C@H](OCc3ccccc3)[C@@H](CO)O2)c1=O [Compound 28, 3-benzoyl-3'-O-benzyl-2'-deoxy-5-trifluoromethyluridine] |  |  |  | 25 | 35 | 1.40 | 
15 | COC[C@H]1O[C@@H](n2cc(C(F)(F)F)c(=O)[nH]c2=O)C[C@@H]1O [Compound 29] |  |  |  | 48 | 72 | 1.50 | 
16 | CCOC[C@H]1O[C@@H](n2cc(C(F)(F)F)c(=O)[nH]c2=O)C[C@@H]1O [Compound 30, 2'-deoxy-5'-O-ethyl-5-trifluoromethyluridine] |  |  |  | 19 | 32 | 1.68 | 
17 | CCO[C@H]1C[C@H](n2cc(C(F)(F)F)c(=O)[nH]c2=O)O[C@@H]1CO [Compound 31, 2'-deoxy-3'-O-ethyl-5-trifluoromethyluridine] |  |  |  | 20 | 30 | 1.50 | 
18 | O=c1[nH]c(=O)n([C@H]2C[C@H](O)[C@@H](COCc3ccccc3)O2)cc1C(F)(F)F [Compound 32, 2'-deoxy-5'-O-benzyl-5-trifluoromethyluridine] |  |  |  | 19 | 34 | 1.79 | 
19 | O=c1[nH]c(=O)n([C@H]2C[C@H](OCc3ccccc3)[C@@H](CO)O2)cc1C(F)(F)F [Compound 33, 3'-O-benzyl-2'-deoxy-5-trifluoromethyluridine] |  |  |  | 17 | 32 |  | 
20 | CCOC[C@H]1O[C@@H](n2cc(F)c(=O)n(C(=O)c3ccccc3)c2=O)C[C@@H]1O [Compound 35, 3-benzoyl-2'-deoxy-5'-O-ethyl-5-fluorouridine] |  |  |  |  |  |  | Antitumor activity value (A) Administration amount of test compound at which tumor enhancement is inhibited by 50% compared with that of control group ([1]; Table 1-c): 51 mg/kg/day; TD50 at 240 h ([2]; Table 1-c): 70 mg/kg; Therapeutic index (C) = (B)/(A) ([3]; Table 1-c): 1.37
21 | CCOC[C@H]1O[C@@H](n2cc(F)c(=O)[nH]c2=O)C[C@@H]1O [Compound 39] |  |  |  |  |  |  | Antitumor activity value (A) Administration amount of test compound at which tumor enhancement is inhibited by 50% compared with that of control group ([1]; Table 1-c): 28 mg/kg/day; TD50 at 240 h ([2]; Table 1-c): 67 mg/kg; Therapeutic index (C) = (B)/(A) ([3]; Table 1-c): 2.39
22 | O=c1[nH]c(=O)n([C@H]2C[C@H](OCc3ccccc3)[C@@H](CO)O2)cc1F [Compound 40, 2'-deoxy-3'-O-benzyl-5-fluorouridine] |  |  |  |  |  |  | Antitumor activity value (A) Administration amount of test compound at which tumor enhancement is inhibited by 50% compared with that of control group ([1]; Table 1-c): 17 mg/kg/day; TD50 at 240 h ([2]; Table 1-c): 35 mg/kg
23 | O=c1[nH]c(=O)n([C@H]2C[C@H](O)[C@@H](COCc3ccccc3)O2)cc1F [Compound 41] |  |  |  |  |  |  | Antitumor activity value (A) Administration amount of test compound at which tumor enhancement is inhibited by 50% compared with that of control group ([1]; Table 1-c): 13 mg/kg/day; TD50 at 240 h ([2]; Table 1-c): 30 mg/kg; Therapeutic index (C) = (B)/(A) ([3]; Table 1-c): 2.31
